Laboratory results from PubChem BioAssay AID2060621 (Molecular Pharmacology Branch, DTP, NCI, 2025).
“And” between values parts separate entries of the source, which are not always exact repeats. Equal values may be shown once.

System: 324938-238-R-J1-PDC complex spheroids viability
Test: Anticancer human tumor 324938-238-R-J1-PDC patient-derived bladder carcinoma cell line growth inhibition [CLK]
Conditions: for viability, T/C: stronger effect = lower value
Outline: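 Patient-derived tumor cells grown as complex spheroids with HUVEC endothelial cells and mesenchymal stem cells, treated with drug combinations. Concentrations descend in half-log steps from near clinical Cmax, or from 10 microM if Cmax unknown.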

[1] = curve of first compound, second compound 0.0316 µM
[2] = curve of first compound, second compound 0.1 µM
[3] = curve of first compound, second compound 0.316 µM
[4] = curve of first compound, second compound 1 µM
[5] = curve of first compound, second compound 3.16 µM
[6] = curve of first compound, second compound 10 µM
[7] = second compound 0.0316 µM, first compound 0.0316 µM
[8] = second compound 0.0316 µM, first compound 0.1 µM
[9] = second compound 0.0316 µM, first compound 0.316 µM
[10] = second compound 0.0316 µM, first compound 1 µM
[11] = second compound 0.0316 µM, first compound 3.16 µM
[12] = second compound 0.0316 µM, first compound 10 µM
[13] = second compound 0.1 µM, first compound 0.0316 µM
[14] = second compound 0.1 µM, first compound 0.1 µM
[15] = second compound 0.1 µM, first compound 0.316 µM
[16] = second compound 0.1 µM, first compound 1 µM
[17] = second compound 0.1 µM, first compound 3.16 µM
[18] = second compound 0.1 µM, first compound 10 µM
[19] = second compound 0.316 µM, first compound 0.0316 µM
[20] = second compound 0.316 µM, first compound 0.1 µM
[21] = second compound 0.316 µM, first compound 0.316 µM
[22] = second compound 0.316 µM, first compound 1 µM
[23] = second compound 0.316 µM, first compound 3.16 µM
[24] = second compound 0.316 µM, first compound 10 µM
[25] = second compound 1 µM, first compound 0.0316 µM
[26] = second compound 1 µM, first compound 0.1 µM
[27] = second compound 1 µM, first compound 0.316 µM
[28] = second compound 1 µM, first compound 1 µM
[29] = second compound 1 µM, first compound 3.16 µM
[30] = second compound 1 µM, first compound 10 µM
[31] = second compound 3.16 µM, first compound 0.0316 µM
[32] = second compound 3.16 µM, first compound 0.1 µM
[33] = second compound 3.16 µM, first compound 0.316 µM
[34] = second compound 3.16 µM, first compound 1 µM
[35] = second compound 3.16 µM, first compound 3.16 µM
[36] = second compound 3.16 µM, first compound 10 µM
[37] = second compound 10 µM, first compound 0.0316 µM
[38] = second compound 10 µM, first compound 0.1 µM
[39] = second compound 10 µM, first compound 0.316 µM
[40] = second compound 10 µM, first compound 1 µM
[41] = second compound 10 µM, first compound 3.16 µM
[42] = second compound 10 µM, first compound 10 µM
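Note: viability read after seven days of drug exposure.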
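Throughout, for viability, T/C: 100% = DMSO vehicle control wells.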

For `COc1ccc([C@@H](O)c2cc(-c3ncnc4cc(N5CCOCC5)ccc34)c(F)cc2Cl)nn1` + CN1CCN(c2cc(C(=O)Nc3cc4cc(-c5cnn(C)c5)ccc4cn3)ccn2)CC1, the IC50 [1] was 2010 nM, the IC50 [2] was 57.5 nM and the IC50 [3] was < 31.6 nM. For the same molecule, the IC50 [4] was < 31.6 nM, the IC50 [5] was < 31.6 nM and the IC50 [6] was < 31.6 nM. For the same molecule, the viability, T/C [7] was 72%, the viability, T/C [8] was 78.8% and the viability, T/C [9] was 65.8%. It also gave a viability, T/C [10] of 59.8%, a viability, T/C [11] of 44.1% and a viability, T/C [12] of 34.7%. For the same molecule, the viability, T/C [13] was 53%, the viability, T/C [14] was 48% and the viability, T/C [15] was 40.3%. The viability, T/C [16] was 44.5%, the viability, T/C [17] was 37.8% and the viability, T/C [18] was 30.9%. For the same molecule, the viability, T/C [19] was 19.6%, the viability, T/C [20] was 21.9% and the viability, T/C [21] was 21.4%. For the same molecule, the viability, T/C [22] was 20.2%, the viability, T/C [23] was 19% and the viability, T/C [24] was 18.9%. The viability, T/C [25] was 0.42%, the viability, T/C [26] was 0.46% and the viability, T/C [27] was 0.79%. The viability, T/C [28] was 0.47%, the viability, T/C [29] was 1.14% and the viability, T/C [30] was 0.71%. It also gave a viability, T/C [31] of 0.13%, a viability, T/C [32] of 0.16% and a viability, T/C [33] of 0.28%. It also gave a viability, T/C [34] of 0.12%, a viability, T/C [35] of 0.24% and a viability, T/C [36] of 0.29%. The viability, T/C [37] was 0.06%, the viability, T/C [38] was 0.14% and the viability, T/C [39] was 0.25%. The viability, T/C [40] was 0.13%, the viability, T/C [41] was 0.31% and the viability, T/C [42] was 0.58%.

In the case of `COc1cccc2c1C(=O)c1c(O)c3c(c(O)c1C2=O)CC(O)(C(=O)CO)CC3OC1CC(N)C(O)C(C)O1` (stereo not given) + CNC(=O)c1ccc(Nc2nc(OC3CCCC3)c3c(-c4ccc5nc(C)oc5c4)c[nH]c3n2)c(OC)c1, the IC50 [1] is reported as < 31.6 nM, the IC50 [2] is reported as < 31.6 nM and the IC50 [3] is reported as < 31.6 nM. For the same molecule, the IC50 [4] was < 31.6 nM, the IC50 [5] was < 31.6 nM and the IC50 [6] was < 31.6 nM. The viability, T/C [7] was 19.3%, the viability, T/C [8] was 16.8% and the viability, T/C [9] was 9.74%. The viability, T/C [10] was 0.7%, the viability, T/C [11] was 0.12% and the viability, T/C [12] was 0.14%. For the same molecule, the viability, T/C [13] was 18.5%, the viability, T/C [14] was 20.2% and the viability, T/C [15] was 9.65%. For the same molecule, the viability, T/C [16] was 0.48%, the viability, T/C [17] was 0.11% and the viability, T/C [18] was 0.15%. The viability, T/C [19] was 19.1%, the viability, T/C [20] was 16.3% and the viability, T/C [21] was 9.12%. It also gave a viability, T/C [22] of 0.49%, a viability, T/C [23] of 0.16% and a viability, T/C [24] of 0.13%. For the same molecule, the viability, T/C [25] was 17.2%, the viability, T/C [26] was 11.7% and the viability, T/C [27] was 7.13%. It also gave a viability, T/C [28] of 0.58%, a viability, T/C [29] of 0.14% and a viability, T/C [30] of 0.15%. It also gave a viability, T/C [31] of 20.2%, a viability, T/C [32] of 12.2% and a viability, T/C [33] of 6.62%. It also gave a viability, T/C [34] of 0.36%, a viability, T/C [35] of 0.14% and a viability, T/C [36] of 0.16%. The viability, T/C [37] was 18.3%, the viability, T/C [38] was 13.4% and the viability, T/C [39] was 5.95%. The viability, T/C [40] was 0.31%, the viability, T/C [41] was 0.19% and the viability, T/C [42] was 0.23%.

With `O=c1[nH]cc(F)c(=O)[nH]1` + CN1CCN(c2cc(C(=O)Nc3cc4cc(-c5cnn(C)c5)ccc4cn3)ccn2)CC1 the IC50 [1] was 236 nM, the IC50 [2] was 94.2 nM and the IC50 [3] was < 31.6 nM. For the same molecule, the IC50 [4] was < 31.6 nM, the IC50 [5] was < 31.6 nM and the IC50 [6] was < 31.6 nM. It also gave a viability, T/C [7] of 74%, a viability, T/C [8] of 72.8% and a viability, T/C [9] of 42.1%. For the same molecule, the viability, T/C [10] was 20.4%, the viability, T/C [11] was 23.9% and the viability, T/C [12] was 19.1%. The viability, T/C [13] was 61.5%, the viability, T/C [14] was 48.2% and the viability, T/C [15] was 36.4%. It also gave a viability, T/C [16] of 22.6%, a viability, T/C [17] of 18.2% and a viability, T/C [18] of 18.1%. It also gave a viability, T/C [19] of 23.1%, a viability, T/C [20] of 23.9% and a viability, T/C [21] of 20.6%. It also gave a viability, T/C [22] of 18.9%, a viability, T/C [23] of 16.8% and a viability, T/C [24] of 17%. The viability, T/C [25] was 0.71%, the viability, T/C [26] was 1.08% and the viability, T/C [27] was 0.67%. For the same molecule, the viability, T/C [28] was 0.81%, the viability, T/C [29] was 0.77% and the viability, T/C [30] was 1.58%. The viability, T/C [31] was 0.09%, the viability, T/C [32] was 0.15% and the viability, T/C [33] was 0.1%. For the same molecule, the viability, T/C [34] was 0.11%, the viability, T/C [35] was 0.08% and the viability, T/C [36] was 0.19%. For the same molecule, the viability, T/C [37] was 0.07%, the viability, T/C [38] was 0.12% and the viability, T/C [39] was 0.13%. For the same molecule, the viability, T/C [40] was 0.09%, the viability, T/C [41] was 0.1% and the viability, T/C [42] was 0.19%.

For `CCc1c2c(nc3ccc(O)cc13)-c1cc3c(c(=O)n1C2)COC(=O)[C@]3(O)CC`, the viability, T/C (compound 0.00316 µM) was 14.5% and 16.4%, the viability, T/C (compound 0.01 µM) was 10.3% and 12.2% and the viability, T/C (compound 0.0316 µM) was 10.7% and 11.6%. The viability, T/C (compound 0.1 µM) was 10.8% and 13.9%, the viability, T/C (compound 0.316 µM) was 7.67% and 11.4% and the viability, T/C (compound 1 µM) was 2.3% and 1.78%. For the same molecule, the IC50 (curve of compound) was < 3.16 nM.

With `CC1(C)CCC(CN2CCN(c3ccc(C(=O)NS(=O)(=O)c4ccc(NCC5CCOCC5)c([N+](=O)[O-])c4)c(Oc4cnc5[nH]ccc5c4)c3)CC2)=C(c2ccc(Cl)cc2)C1` + CNC(=O)c1ccc(Nc2nc(OC3CCCC3)c3c(-c4ccc5nc(C)oc5c4)c[nH]c3n2)c(OC)c1 the IC50 [1] was 4520 nM, the IC50 [2] was < 31.6 nM and the IC50 [3] was < 31.6 nM. The IC50 [4] was < 31.6 nM, the IC50 [5] was < 31.6 nM and the IC50 [6] was < 31.6 nM. For the same molecule, the viability, T/C [7] was 76.8%, the viability, T/C [8] was 78.4% and the viability, T/C [9] was 84.1%. For the same molecule, the viability, T/C [10] was 83.6%, the viability, T/C [11] was 69.4% and the viability, T/C [12] was 6.56%. It also gave a viability, T/C [13] of 29.6%, a viability, T/C [14] of 25.7% and a viability, T/C [15] of 26.6%. The viability, T/C [16] was 19.6%, the viability, T/C [17] was 19.8% and the viability, T/C [18] was 4.63%. For the same molecule, the viability, T/C [19] was 18.9%, the viability, T/C [20] was 14.3% and the viability, T/C [21] was 15.2%. It also gave a viability, T/C [22] of 13.7%, a viability, T/C [23] of 14.6% and a viability, T/C [24] of 4.21%. The viability, T/C [25] was 14.7%, the viability, T/C [26] was 21.3% and the viability, T/C [27] was 14.7%. The viability, T/C [28] was 14.5%, the viability, T/C [29] was 13.2% and the viability, T/C [30] was 7.92%. It also gave a viability, T/C [31] of 17.9%, a viability, T/C [32] of 14.5% and a viability, T/C [33] of 14%. The viability, T/C [34] was 14.8%, the viability, T/C [35] was 13.6% and the viability, T/C [36] was 8.16%. It also gave a viability, T/C [37] of 14.8%, a viability, T/C [38] of 15.1% and a viability, T/C [39] of 15.8%. The viability, T/C [40] was 14.7%, the viability, T/C [41] was 14% and the viability, T/C [42] was 7.47%.
